According to patent US7557137B2, “Gamma-lactams as beta-secretase inhibitors” (Bristol-Myers Squibb Company, priority 2002, dated 2009):

Molecular target: T1, BACE enzyme (Homo sapiens, UniProt P56817)
T1 construct: the catalytic domain, appended by a C-terminal poly-histidine tag, is secreted out into the cellular medium; made in house; host or cells: Drosophila melanogaster S2 cells
Assay: BACE enzyme inhibition, fluorescence-quenched peptide substrate MCA-EVNLDAEFK(DNP)
Assay type: biochemical
Conditions: 50 mM acetate, pH 4.5, 0.25 mg/ml bovine serum albumin, 2.5% DMSO; read-out: Activity Rating (based on IC50 values)
Description: There are a number of methods by which inhibitors of the BACE enzyme can be identified experimentally. The enzyme can be obtained from membrane samples from natural tissues or cultured cells or can be expressed recombinantly in a host cell by well known methods of molecular biology. […] The enzymatic activity and/or ligand binding capability of the enzyme can be assessed within these membrane samples, or the enzyme can be purified to varying extents. As an illustrative example, the nucleic acid sequence encoding the pro and catalytic domains of human BACE can be appended on the 5′ end with an untranslated and signal sequence from the gene for acetylcholinesterase, and on the 3′ end with a sequence encoding a poly-histidine tag. This cDNA can then be expressed in Drosophila melanogaster S2 cells in which the signal and pro sequences of the transcribed/translated protein are removed by cellular proteases and the catalytic domain, appended by a C-terminal poly-histidine tag, is secreted out into the cellular medium. The enzyme can then be purified from the culture medium by nickel affinity chromatography by methods well known to those trained in the art [Mallender, W. et al., (2001) “Characterization of recombinant, soluble beta-secretase from an insect cell expression system.” Mol. Pharmacol. 59: 619-626]. Similar strategies for expressing and purifying various forms of BACE in bacterial, mammalian and other cell types would be known to one skilled in the art.
The enzyme thus obtained can be put in contact with a test compound and with an appropriate substrate on which enzyme-mediated peptide bond hydrolysis is known to occur. The ability of the test compound to diminish the rate of substrate hydrolysis can then be quantified as a measure of inhibition potency. Appropriate substrates can be prepared as peptides, proteins, or chemically modified versions of peptides or proteins, that contain an amino acid sequence that is recognized as a substrate by the enzyme. For example, the amino acid sequence immediately proximal to the beta-cleavage site within Swedish mutant APP is known to be recognized as a substrate for BACE. […] Longer peptide and protein substrates can also be designed by extending the amino acid composition on the N-terminal, the C-terminal, or both ends.
In one known application of (SEQ. ID. NO.:1), X is a 7-methoxycoumarin-4-acetyl (MCA) group and Y is a dinitrophenyl (DNP) group [Marcinkeviciene, J. et al., (2001) “Mechanism of inhibition of beta-site amyloid precursor protein-cleaving enzyme (BACE) by a statine-based peptide.” J. Biol. Chem. 276: 23790-23794]. When this peptide is intact, the natural fluorescence of the MCA group is quenched by its proximity to the DNP group. […] The increase in fluorescence intensity that accompanies enzyme-mediated peptide hydrolysis can be measured as a function of time to quantify the velocity of enzyme catalysis. In a typical assay system the BACE enzyme is diluted into a buffer system composed of 50 mM acetate, pH 4.5 containing 0.25 mg/ml bovine serum albumin. To this is added neat dimethyl sulfoxide (DMSO) or a stock solution of test compound dissolved in DMSO so that the final amount of DMSO in all assays is held constant at 2.5% (v:v). The enzymatic reaction is then initiated by addition of a stock solution of the substrate peptide to a known concentration. The fluorescence increase with time after substrate addition is monitored with an appropriate fluorescence detection instrument, such as a microplate reader or spectrofluorometer. The slope of the signal vs. time plot (progress curve) for samples to which only DMSO was added is taken as a measure of the uninhibited velocity and represents 100% enzymatic activity.

T1 sequence (P56817 75-416 limits assumed): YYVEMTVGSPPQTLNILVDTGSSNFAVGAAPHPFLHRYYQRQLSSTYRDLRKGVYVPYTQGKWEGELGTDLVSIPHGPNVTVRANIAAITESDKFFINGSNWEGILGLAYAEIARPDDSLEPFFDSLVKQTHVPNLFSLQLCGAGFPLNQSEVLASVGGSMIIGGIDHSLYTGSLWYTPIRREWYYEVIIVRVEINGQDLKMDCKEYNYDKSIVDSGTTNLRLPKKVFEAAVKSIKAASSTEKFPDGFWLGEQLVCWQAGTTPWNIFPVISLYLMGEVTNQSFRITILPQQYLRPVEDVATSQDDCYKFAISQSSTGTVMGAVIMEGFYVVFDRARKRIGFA

Compound | IC50
COc1cccc(CNC[C@@H](O)[C@H](Cc2cc(F)cc(F)c2)NC(=O)[C@H](CCc2ccccc2OC)N2CCC(CC3CC3)(NC(C)=O)C2=O)c1 (stereo in doubt) [Example 38, (2S)-2-(3(S)-acetylamino-3-(cyclopropylmethyl)-2-oxo-pyrrolidin-1-yl)-N-[(1S,2R)-1-(3,5-difluorobenzyl)-2-hydroxy-3-(3-methoxybenzylamino)-propyl]-4-(2-methoxyphenyl)-butyramide] | < 100 nM
CC(=O)NC1(CC(C)C)CCN([C@@H](CCc2ccccc2)C(=O)N[C@@H](Cc2ccccc2)[C@H](O)CNCC2CC2)C1=O (stereo in doubt) [Example 32, (2S)-2-(3(S)-acetylamino-3-(isobutyl)-2-oxo-pyrrolidin-1-yl)-N-[(1S,2R)-1-benzyl-2-hydroxy-3-(cyclopropylmethyl)amino-propyl]-4-phenyl-butyramide] | 100 to 1000 nM
CCC(C)[C@@]1(NS(=O)(=O)CC)CCN([C@@H](CCc2ccccc2)C(=O)N[C@@H](Cc2ccccc2)C(O)CNCc2cccc(OC)c2)C1=O (stereo partly drawn) [Example 26, (2S)-2-(3(S)-(ethylsulfonamido)-3-((S)-sec-butyl)-2-oxo-pyrrolidin-1-yl)-N-[(1S)-1-benzyl-2-hydroxy-3-(3-methoxy-benzylamino)-propyl]-4-phenyl-butyramide] | 1000 to 50000 nM
CC[C@H](C)[C@@]1(NC(C)=O)CCN([C@@H](CCc2ccccc2)C(=O)N[C@@H](Cc2ccccc2)[C@H](O)CNCc2cccc(OC)c2)C1=O [Example 3, (2S)-2-(3(S)-Acetylamino-3-((S)-sec-butyl)-2-oxo-pyrrolidin-1-yl)-N-[(1S,2R)-1-benzyl-2-hydroxy-3-(3-methoxy-benzylamino)-propyl]-4-phenyl-butyramide] | < 100 nM
COc1cccc(CNC[C@@H](O)[C@H](Cc2cc(F)cc(F)c2)NC(=O)[C@H](CCc2ccc(F)cc2)N2CCC(CC3CC3)(NC(C)=O)C2=O)c1 (stereo in doubt) [Example 41, (2S)-2-(3(S)-acetylamino-3-(cyclopropylmethyl)-2-oxo-pyrrolidin-1-yl)-N-[(1S,2R)-1-(3,5-difluorobenzyl)-2-hydroxy-3-(3-methoxybenzylamino)-propyl]-4-(4-fluorophenyl)-butyramide] | < 100 nM
CC[C@H](C)[C@@]1(NC(=O)C(F)(F)F)CCN([C@@H](CCc2ccccc2)C(=O)N[C@@H](Cc2ccccc2)[C@H](O)CNCc2cccc(OC)c2)C1=O [Example 19, (2S)-2-(3(S)-(trifluoroacetyl)amino-3-((S)-sec-butyl)-2-oxo-pyrrolidin-1-yl)-N-[(1S,2R)-1-benzyl-2-hydroxy-3-(3-methoxy-benzylamino)-propyl]-4-phenyl-butyramide] | 100 to 1000 nM
CCOC(=O)N[C@]1([C@@H](C)CC)CCN([C@@H](CCc2ccccc2)C(=O)N[C@@H](Cc2ccccc2)[C@@H](O)CNCc2cccc(OC)c2)C1=O [Example 13, (2S)-2-(3(S)-ethoxycarbonylamino-3-((S)-sec-butyl)-2-oxo-pyrrolidin-1-yl)-N-[(1S,2S)-1-benzyl-2-hydroxy-3-(3-methoxy-benzylamino)-propyl]-4-phenyl-butyramide] | 1000 to 50000 nM
CC(=O)N[C@]1(CC(C)C)CCN([C@@H](CCc2ccccc2)C(=O)N[C@@H](Cc2ccccc2)[C@H](O)CNCc2ccccc2)C1=O [Example 35, 2-(3(S)-Acetylamino-3(S)-isobutyl-2-oxo-pyrrolidin-1-yl)-N-[(1S,2R)-1-benzyl-2-hydroxy-3-benzylamino-propyl]-4-phenyl-butyramide] | < 100 nM
CC[C@H](C)[C@@]1(NC(=O)COC)CCN([C@@H](CCc2ccccc2)C(=O)N[C@@H](CC(C)C)[C@H](O)CNCc2cccc(OC)c2)C1=O [Example 5, (2S)-2-(3-((S)-sec-butyl)-3-(2-methoxy-acetylamino)-2-oxo-pyrrolidin-1-yl)-N—(S)-{1(R)-[1-hydroxy-2-(3-methoxy-benzylamino)-ethyl]-3-methyl-butyl}-4-phenyl-butyramide] | 1000 to 50000 nM
C#CCNC[C@@H](O)[C@H](Cc1ccccc1)NC(=O)[C@H](CCc1ccccc1)N1CC[C@](NC(C)=O)([C@@H](C)CC)C1=O [Example 30, (2S)-2-(3(S)-acetylamino-3-((S)-sec-butyl)-2-oxo-pyrrolidin-1-yl)-N-[(1S,2R)-1-benzyl-2-hydroxy-3-(propargylamino)-propyl]-4-phenyl-butyramide] | < 100 nM
COc1cccc(CNC[C@@H](O)[C@H](Cc2cc(F)cc(F)c2)NC(=O)[C@H](CCc2cccc(F)c2)N2CCC(CC3CC3)(NC(C)=O)C2=O)c1 (stereo in doubt) [Example 40, (2S)-2-(3(S)-acetylamino-3-(cyclopropylmethyl)-2-oxo-pyrrolidin-1-yl)-N-[(1S,2R)-1-(3,5-difluorobenzyl)-2-hydroxy-3-(3-methoxybenzylamino)-propyl]-4-(3-fluorophenyl)-butyramide] | < 100 nM
CC[C@H](C)[C@@]1(NC(C)=O)CCN([C@@H](CCc2ccccc2)C(=O)N[C@@H](Cc2ccccc2F)[C@H](O)CNCc2cccc(OC)c2)C1=O [Example 11, (2S)-2-(3(S)-acetylamino-3-((S)-sec-butyl)-2-oxo-pyrrolidin-1-yl)-N-[(1S,2R)-1-(2-fluorobenzyl)-2-hydroxy-3-(3-methoxy-benzylamino)-propyl]-4-phenyl-butyramide] | 100 to 1000 nM
CC[C@H](C)[C@@]1(NC(=O)COC)CCN([C@@H](CCc2ccccc2)C(=O)N[C@@H](Cc2ccccc2)[C@H](O)CNCc2cccc(OC)c2)C1=O [Example 9, (2S)-2-(3(S)-(2-methoxy-acetylamino)-3-((S)-sec-butyl)-2-oxo-pyrrolidin-1-yl)-N-[(1S,2R)-1-benzyl-2-hydroxy-3-(3-methoxy-benzylamino)-propyl]-4-phenyl-butyramide] | < 100 nM
CC[C@H](C)[C@@]1(NC(C)=O)CCN([C@@H](CCc2ccccc2)C(=O)N[C@@H](Cc2ccccc2)[C@H](O)CNCC2CC2)C1=O [Example 31, (2S)-2-(3(S)-acetylamino-3-((S)-sec-butyl)-2-oxo-pyrrolidin-1-yl)-N-[(1S,2R)-1-benzyl-2-hydroxy-3-(cyclopropylmethyl)amino-propyl]-4-phenyl-butyramide] | 100 to 1000 nM
COc1cccc(CNC[C@@H](O)[C@H](Cc2cc(F)cc(F)c2)NC(=O)[C@H](CCc2ccccc2)N2CC[C@](NC(C)=O)(C(C)C)C2=O)c1 [Example 1, (2S)-2-(3-Acetylamino-3-isopropyl-2-oxo-pyrrolidin-1-yl)-N-[(1S,2R)-1-(3,5-difluoro-benzyl)-2-hydroxy-3-(3-methoxy-benzylamino)-propyl]-4-phenyl-butyramide] | < 100 nM
CC[C@H](C)[C@@]1(NC(=O)[C@@H](N)CCC(=O)O)CCN([C@@H](CCc2ccccc2)C(=O)N[C@@H](Cc2ccccc2)[C@H](O)CNCc2cccc(OC)c2)C1=O [Example 8] | < 100 nM
CCCS(=O)(=O)N[C@]1(C(C)CC)CCN([C@@H](CCc2ccccc2)C(=O)N[C@@H](Cc2ccccc2)C(O)CNCc2cccc(OC)c2)C1=O (stereo partly drawn) [Example 27, (2S)-2-(3(S)-(propylsulfonamido)-3-((S)-sec-butyl)-2-oxo-pyrrolidin-1-yl)-N-[(1S)-1-benzyl-2-hydroxy-3-(3-methoxy-benzylamino)-propyl]-4-phenyl-butyramide] | 1000 to 50000 nM
CC[C@H](C)[C@@]1(NC(=O)CCO)CCN([C@@H](CCc2ccccc2)C(=O)N[C@@H](Cc2ccccc2)[C@H](O)CNCc2cccc(OC)c2)C1=O [Example 24, (2S)-2-(3(S)-(3-hydroxypropionylamino)-3-((S)-sec-butyl)-2-oxo-pyrrolidin-1-yl)-N-[(1S,2R)-1-benzyl-2-hydroxy-3-(3-methoxy-benzylamino)-propyl]-4-phenyl-butyramide] | < 100 nM
